Measurements published in the supplement of paper PMC10307832.

Experiments:
Assay in all cases: relative viability (nuclei count vs DMSO), 5 days (fraction); higher = more cells survive
XMD8-85 + Dasatinib = compound: CN1CCN(CC1)C2=CC(=C(C=C2)NC3=NC=C4C(=N3)N(C5=CC=CC=C5C(=O)N4C)C)OC [XMD8-85] + Cc1nc(Nc2ncc(C(=O)Nc3c(C)cccc3Cl)s2)cc(N2CCN(CCO)CC2)n1 [Dasatinib] (partner 0.075 µM)
Summary of the method: (§1)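 Five library-drug doses in √10 steps were combined with a fixed anchor-drug dose, or a single drug was given alone, by pin tool to lung cancer cell lines in 1536-well plates the day after seeding. Nuclei were stained and counted after 5 days. Relative viability is the nuclei count in treated wells over that in vehicle wells, taken as the median of duplicate plates.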

4EGI-1 + Tozasertib = compound: O=C(O)C(Cc1ccccc1[N+](=O)[O-])=NNc1nc(-c2ccc(Cl)c(Cl)c2)cs1 (mixture of isomers) [4EGI-1] + Cc1cc(Nc2cc(N3CCN(C)CC3)nc(Sc3ccc(NC(=O)C4CC4)cc3)n2)n[nH]1 [Tozasertib] (partner 0.1 µM)
Summary of the method: as §1

4EGI-1 + Pemetrexed = compound: O=C(O)C(Cc1ccccc1[N+](=O)[O-])=NNc1nc(-c2ccc(Cl)c(Cl)c2)cs1 (mixture of isomers) [4EGI-1] + Nc1nc2[nH]cc(CCc3ccc(C(=O)N[C@@H](CCC(=O)O)C(=O)O)cc3)c2c(=O)[nH]1 [Pemetrexed] (partner 0.2 µM)
Summary of the method: as §1

4EGI-1 + Bortezomib = compound: O=C(O)C(Cc1ccccc1[N+](=O)[O-])=NNc1nc(-c2ccc(Cl)c(Cl)c2)cs1 (mixture of isomers) [4EGI-1] + CC(C)C[C@H](NC(=O)[C@H](Cc1ccccc1)NC(=O)c1cnccn1)B(O)O [Bortezomib] (partner 0.002 µM)
Summary of the method: as §1

Cell Line | relative viability (XMD8-85 + Dasatinib; first compound 0.08 µM) | relative viability (XMD8-85 + Dasatinib; first compound 0.253 µM) | relative viability (XMD8-85 + Dasatinib; first compound 0.8 µM) | relative viability (XMD8-85 + Dasatinib; first compound 2.53 µM) | relative viability (XMD8-85 + Dasatinib; first compound 8 µM) | relative viability (4EGI-1 + Tozasertib; first compound 0.5 µM) | relative viability (4EGI-1 + Tozasertib; first compound 5 µM) | relative viability (4EGI-1 + Tozasertib; first compound 15.81 µM) | relative viability (4EGI-1 + Tozasertib; first compound 50 µM) | relative viability (4EGI-1 + Pemetrexed; first compound 0.5 µM) | relative viability (4EGI-1 + Pemetrexed; first compound 1.581 µM) | relative viability (4EGI-1 + Pemetrexed; first compound 5 µM) | relative viability (4EGI-1 + Pemetrexed; first compound 15.81 µM) | relative viability (4EGI-1 + Pemetrexed; first compound 50 µM) | relative viability (4EGI-1 + Bortezomib; first compound 0.5 µM) | relative viability (4EGI-1 + Bortezomib; first compound 1.581 µM) | relative viability (4EGI-1 + Bortezomib; first compound 5 µM) | relative viability (4EGI-1 + Bortezomib; first compound 15.81 µM) | relative viability (4EGI-1 + Bortezomib; first compound 50 µM) | relative viability (4EGI-1 + Tozasertib; first compound 1.581 µM)
SW 900 | 0.615 | 0.608 | 0.641 | 0.549 | 0.417 | 0.688 | 0.551 | 0.459 | 0.291 | 0.496 | 0.513 | 0.485 | 0.405 | 0.136 |  |  |  |  |  | 
NCI-H727 | 0.295 | 0.416 | 0.442 | 0.344 | 0.353 | 0.595 | 0.502 | 0.499 | 0.585 |  |  |  |  |  | 0.985 | 0.874 | 0.652 | 0.722 | 0.442 | 0.765
NCI-H596 | 0.599 | 0.541 | 0.553 | 0.556 | 0.545 | 1.01 | 0.987 | 0.949 | 0.783 | 0.535 | 0.458 | 0.51 | 0.455 | 0.43 | 1 | 0.932 | 1.05 | 0.986 | 0.789 | 0.769
NCI-H2347 | 0.304 | 0.332 | 0.289 | 0.313 | 0.489 | 0.589 | 0.557 | 0.46 | 0.467 | 0.438 | 0.407 | 0.452 | 0.414 | 0.413 | 1.06 | 0.835 | 0.992 | 1.08 | 0.886 | 
NCI-H2126 | 0.601 | 0.625 | 0.613 | 0.562 | 0.417 | 1 | 0.861 | 0.822 | 0.741 | 0.793 | 0.712 | 0.681 | 0.596 | 0.537 | 1.13 | 1.04 | 1.07 | 1 | 1.11 | 
HCC-78 | 0.567 | 0.48 | 0.42 | 0.352 | 0.242 | 0.538 | 0.336 | 1.56 | 0.289 | 0.911 |  | 0.916 | 0.892 | 0.972 | 0.618 | 0.466 | 0.513 | 0.432 | 0.399 | 
HARA | 0.268 | 0.314 | 0.281 | 0.261 | 0.238 | 0.129 | 0.101 | 0.105 | 0.0717 | 0.266 | 0.273 | 0.333 | 0.238 | 0.223 | 1.16 | 1.12 | 1.26 | 1.08 | 0.154 | 0.121
A-427 | 0.734 | 0.717 | 0.749 | 0.797 | 0.618 | 0.192 | 0.189 | 0.205 | 0.0979 | 0.982 |  | 0.99 | 0.838 | 0.228 | 0.984 | 0.795 | 0.911 | 0.832 | 0.625 | 0.195
HCC-44 |  |  |  |  |  | 0.971 | 0.946 | 0.384 | 0.282 | 0.609 | 0.634 | 0.549 | 0.584 | 0.593 | 0.924 | 0.637 | 0.877 | 0.753 | 0.235 | 
NCI-H1395 | 0.438 | 0.414 | 0.42 | 0.428 | 0.309 | 0.868 | 0.764 | 0.711 | 0.477 | 0.878 |  | 1.12 | 0.917 | 0.421 |  |  |  |  |  | 0.637
NCI-H522 | 0.858 | 0.867 | 0.818 | 0.944 | 0.909 | 0.558 | 0.595 | 0.558 | 0.457 | 0.948 | 0.981 | 1.07 | 1.06 | 0.718 |  |  |  |  |  | 0.491
SK-MES-1 | 0.296 | 0.366 | 0.44 |  | 0.255 | 0.894 | 0.925 | 0.699 | 0.234 | 0.979 | 0.713 | 0.968 | 0.751 | 0.24 |  |  |  |  |  | 0.596
EBC-1 |  |  |  |  |  |  |  |  |  |  |  |  |  |  | 0.668 | 0.547 | 0.704 | 0.52 | 0.181 | 
NCI-H2170 | 0.574 | 0.562 | 0.526 | 0.564 | 0.548 | 0.829 | 0.628 | 0.617 | 0.314 | 0.259 | 0.256 | 0.247 | 0.256 | 0.265 |  |  |  |  |  | 0.728
LK-2 |  | 0.305 | 0.262 | 0.261 | 0.222 | 0.193 | 0.199 | 0.151 | 0.151 | 0.303 |  | 0.336 | 0.289 | 0.179 |  |  |  |  |  | 
NCI-H1299 |  |  |  |  |  |  |  |  |  |  |  |  |  |  | 1.02 | 1.04 | 0.993 | 0.997 | 1.02 | 
ABC-1 | 0.515 |  | 0.503 | 0.673 | 0.408 | 0.201 | 0.21 | 0.206 | 0.172 |  |  |  |  |  | 0.344 | 0.291 | 0.319 | 0.285 | 0.214 | 0.15
NCI-H358 | 0.167 | 0.173 | 0.169 | 0.207 | 0.18 | 0.102 | 0.102 | 0.102 | 0.0781 | 0.177 | 0.187 | 0.178 | 0.174 | 0.165 |  |  |  |  |  | 0.117
NCI-H1623 | 0.533 | 0.571 | 0.533 | 0.56 | 0.444 | 0.481 | 0.535 | 0.36 | 0.33 |  |  |  |  |  |  |  |  |  |  | 0.421
Calu-6 |  |  |  |  |  |  |  |  |  |  |  |  |  |  | 0.982 | 0.877 | 1.15 | 0.989 | 0.33 | 
NCI-H1563 | 0.493 | 0.431 | 0.448 | 0.465 | 0.412 |  |  |  |  | 0.905 | 0.221 | 0.968 | 0.747 | 0.81 | 0.895 | 0.728 | 0.847 | 0.818 | 0.468 | 
NCI-H1793 | 0.384 | 0.403 | 0.404 | 0.413 | 0.338 | 0.318 | 0.391 | 0.247 | 0.2 | 1.09 | 0.905 | 1.1 | 0.659 | 0.304 |  |  |  |  |  | 0.364
